This experiment deals with MNT-1 cells. The experiment can be described thus: Measurement of the relative melanin concentration (absorbance at 470 nm of protein lysates). It counts as cell-based, human. The following applies: Homo sapiens, 288 h, 3.5 mM, 12 days, read-out: percentage inhibition (depigmentation positive control). The procedure:
4×10^5 MNT-1 cells were seeded per well in a 6-well plate (#353046, Falcon) on day-1. On day 0, the cells were transfected with 50 nM of mimetic of the miRNAs (hsa-mir-137 # C-300604-07-005, hsa-mir-7 # C-300547-05-0005, hsa-mir-330-5p # C-301082-01-0005, negative control # NC-002000-01-05, Dharmacon), using 5 μL of Lipofectamine 2000 (#1668-019, Invitrogen). On day 1, the medium was changed. On day 3, the cells were trypsinized and seeded at 4×10^5 cells per well. On day 4, the cells were transfected again with 50 nM of mimetic of the miRNAs (see day 0). On day 5, the medium was changed. On day 7, the cells were trypsinized and seeded at 4×10^5 cells per well. On day 8, the cells were transfected with 50 nM of mimetic of the miRNAs (see day 0). On day 9, the medium was changed. On day 10, the cells were trypsinized and divided into two (from one by six wells to two by six wells). On day 12, one six-well plate was used for lysis of the RNA and the other for lysis of the proteins. As positive control of depigmentation, MNT-1 cells were incubated with 3.5 mM of kojic acid (Sigma K3125-5G) for 12 days. The cells were distributed as described and the kojic acid was renewed with the medium every 4 days. The percentage inhibition of the kojic acid is of the order of 10%.
On day 12, the cells were washed in PBS twice and lysed in 75 μL/well of a 6-well dish of lysis buffer for the RIPA proteins. The protein lysates were transferred to 1.5-ml Eppendorf tubes and vortexed lightly to homogenize the solution before putting the tube on ice or for storage at −80° C. 2 μL of protein lysate was used for measuring the absorbance of the melanin at 470 nm using the NanoVue spectrophotometer (GE Healthcare). The protein lysate of the unpigmented XB2 keratinocytes was used as calibrator sample (reference=0). To detect the relative quantity of melanin, all the samples were compared with the transfection control sample (miCtrl). The absorbance at 470 nm of the sample miCtrl was fixed at 1 as reference. In addition, the melanin absorption at 470 nm was normalized taking into account the concentration of proteins of each sample relative to miCtrl.

Turning to `O=c1cc(CO)occ1O` [kojic acid, reference compound], the inhibition – broadly, the change of the read-out against control, counted positive when it falls – at 3500 µM is around 10%.

The record behind these values is patent publication US9410152B2, “Use of microrna molecules to influence skin pigmentation” (CHANEL PARFUMS BEAUTE, priority 2011, dated 2016).
